Values joined by “and” are separate entries in the source; they are usually repeats but may differ in a detail not shown here. Identical values can stand only once.
Assay: xn = mol fraction of the nth substance listed
Settings: Gas, Buoyancy - hydrostatic balance with magnetic suspension - one sinker

N#N [nitrogen] + C
Settings | mass density
240 K, 2107.5 kPa, x2 = 0.8998 | 19.5904 kg/m3 and 19.5908 kg/m3
240 K, 4055.5 kPa, x2 = 0.8998 | 40.6283 kg/m3
240 K, 8017.2 kPa, x2 = 0.8 | 96.5565 kg/m3
240 K, 8864.8 kPa, x2 = 0.8 | 109.578 kg/m3
240 K, 12048 kPa, x2 = 0.8 | 159.33 kg/m3
240 K, 13511 kPa, x2 = 0.8998 | 181.648 kg/m3
240.01 K, 1951.7 kPa, x2 = 0.8 | 19.1493 kg/m3 and 19.149 kg/m3
240.01 K, 3991.5 kPa, x2 = 0.8 | 41.8987 kg/m3
240.01 K, 3991.7 kPa, x2 = 0.8 | 41.901 kg/m3
240.01 K, 6011.9 kPa, x2 = 0.8 | 67.6707 kg/m3
240.01 K, 6012.2 kPa, x2 = 0.8 | 67.6768 kg/m3
240.01 K, 7076 kPa, x2 = 0.8 | 82.6152 kg/m3
240.01 K, 8017.6 kPa, x2 = 0.8 | 96.5609 kg/m3
240.01 K, 8026.3 kPa, x2 = 0.8998 | 94.9591 kg/m3
240.01 K, 10028 kPa, x2 = 0.8998 | 127.626 kg/m3
240.01 K, 10029 kPa, x2 = 0.8998 | 127.633 kg/m3
240.01 K, 10372 kPa, x2 = 0.8 | 133.317 kg/m3 and 133.315 kg/m3
240.01 K, 12048 kPa, x2 = 0.8 | 159.332 kg/m3
240.01 K, 12090 kPa, x2 = 0.8998 | 160.982 kg/m3
240.01 K, 13638 kPa, x2 = 0.8 | 182.319 kg/m3
240.01 K, 15026 kPa, x2 = 0.8998 | 200.798 kg/m3
240.02 K, 6035.6 kPa, x2 = 0.8998 | 65.6527 kg/m3
249.91 K, 2443.9 kPa, x2 = 0.8 | 23.1504 kg/m3
249.91 K, 2444.1 kPa, x2 = 0.8 | 23.1522 kg/m3
249.91 K, 2444.9 kPa, x2 = 0.8 | 23.1598 kg/m3
249.91 K, 5015.8 kPa, x2 = 0.8 | 51.0598 kg/m3
249.91 K, 5016 kPa, x2 = 0.8 | 51.0618 kg/m3
249.91 K, 7570.5 kPa, x2 = 0.8 | 82.6548 kg/m3
249.92 K, 7570.8 kPa, x2 = 0.8 | 82.6605 kg/m3
249.92 K, 8909.9 kPa, x2 = 0.8 | 100.551 kg/m3
249.92 K, 8910.5 kPa, x2 = 0.8 | 100.56 kg/m3
249.92 K, 8911 kPa, x2 = 0.8 | 100.565 kg/m3
249.93 K, 10917 kPa, x2 = 0.8 | 128.204 kg/m3
249.93 K, 12900 kPa, x2 = 0.8 | 155.107 kg/m3
249.93 K, 12901 kPa, x2 = 0.8 | 155.123 kg/m3
249.93 K, 14257 kPa, x2 = 0.8 | 172.455 kg/m3
249.93 K, 14258 kPa, x2 = 0.8 | 172.479 kg/m3
249.93 K, 16938 kPa, x2 = 0.8 | 202.973 kg/m3
249.93 K, 16952 kPa, x2 = 0.8 | 203.124 kg/m3
249.94 K, 9596 kPa, x2 = 0.8 | 109.925 kg/m3
249.94 K, 10910 kPa, x2 = 0.8 | 128.101 kg/m3
249.99 K, 2003.4 kPa, x2 = 0.8998 | 17.6409 kg/m3
249.99 K, 2056.7 kPa, x2 = 0.8 | 19.2703 kg/m3
249.99 K, 3994.1 kPa, x2 = 0.8998 | 37.4833 kg/m3
249.99 K, 3994.2 kPa, x2 = 0.8998 | 37.4837 kg/m3
249.99 K, 4008 kPa, x2 = 0.8 | 39.6397 kg/m3
249.99 K, 6005.8 kPa, x2 = 0.8998 | 60.2899 kg/m3
249.99 K, 6017.6 kPa, x2 = 0.8 | 62.9683 kg/m3
249.99 K, 7544.1 kPa, x2 = 0.8 | 82.2685 kg/m3
249.99 K, 7544.6 kPa, x2 = 0.8 | 82.2725 kg/m3
249.99 K, 8074.6 kPa, x2 = 0.8998 | 86.7809 kg/m3
249.99 K, 8074.9 kPa, x2 = 0.8998 | 86.7846 kg/m3
249.99 K, 8075.1 kPa, x2 = 0.8998 | 86.7862 kg/m3
249.99 K, 10120 kPa, x2 = 0.8998 | 115.3 kg/m3
249.99 K, 10121 kPa, x2 = 0.8 | 117.092 kg/m3
249.99 K, 12763 kPa, x2 = 0.8998 | 152.294 kg/m3
249.99 K, 13368 kPa, x2 = 0.8 | 161.09 kg/m3
249.99 K, 13369 kPa, x2 = 0.8 | 161.093 kg/m3
250 K, 1972.2 kPa, x2 = 0.8998 | 17.3493 kg/m3
250 K, 2229 kPa, x2 = 0.8998 | 19.7632 kg/m3
250 K, 12762 kPa, x2 = 0.8998 | 152.28 kg/m3 and 152.282 kg/m3
250 K, 15168 kPa, x2 = 0.8998 | 182.264 kg/m3
250 K, 18609 kPa, x2 = 0.8998 | 216.303 kg/m3
274.8 K, 11276 kPa, x2 = 0.8 | 109.07 kg/m3
274.81 K, 2552.2 kPa, x2 = 0.8 | 21.5902 kg/m3
274.81 K, 2552.3 kPa, x2 = 0.8 | 21.5893 kg/m3
274.81 K, 5055.3 kPa, x2 = 0.8 | 44.7483 kg/m3
274.81 K, 5055.4 kPa, x2 = 0.8 | 44.7496 kg/m3
274.81 K, 7550.3 kPa, x2 = 0.8 | 69.666 kg/m3 and 69.6651 kg/m3
274.81 K, 7562.1 kPa, x2 = 0.8 | 69.788 kg/m3
274.81 K, 7562.6 kPa, x2 = 0.8 | 69.7929 kg/m3
274.81 K, 9501.7 kPa, x2 = 0.8 | 90.1191 kg/m3
274.81 K, 9502.3 kPa, x2 = 0.8 | 90.1254 kg/m3
274.81 K, 10330 kPa, x2 = 0.8 | 98.956 kg/m3
274.81 K, 10337 kPa, x2 = 0.8 | 99.0305 kg/m3
274.81 K, 11275 kPa, x2 = 0.8 | 109.063 kg/m3
274.81 K, 12889 kPa, x2 = 0.8 | 126.201 kg/m3
274.81 K, 12890 kPa, x2 = 0.8 | 126.206 kg/m3
274.81 K, 14325 kPa, x2 = 0.8 | 141.105 kg/m3
274.81 K, 14327 kPa, x2 = 0.8 | 141.128 kg/m3
274.81 K, 15731 kPa, x2 = 0.8 | 155.191 kg/m3
274.81 K, 15733 kPa, x2 = 0.8 | 155.216 kg/m3
274.81 K, 16797 kPa, x2 = 0.8 | 165.435 kg/m3
274.81 K, 16816 kPa, x2 = 0.8 | 165.609 kg/m3
274.82 K, 8425.3 kPa, x2 = 0.8 | 78.7622 kg/m3
274.82 K, 9439.5 kPa, x2 = 0.8 | 89.4646 kg/m3
274.82 K, 11275 kPa, x2 = 0.8 | 109.065 kg/m3
274.82 K, 11277 kPa, x2 = 0.8 | 109.088 kg/m3
274.82 K, 12811 kPa, x2 = 0.8 | 125.374 kg/m3
274.99 K, 2012.7 kPa, x2 = 0.8 | 16.8448 kg/m3
274.99 K, 2211 kPa, x2 = 0.8998 | 17.4645 kg/m3
274.99 K, 4076.7 kPa, x2 = 0.8 | 35.4308 kg/m3
274.99 K, 6021.2 kPa, x2 = 0.8 | 54.1463 kg/m3
274.99 K, 6055.4 kPa, x2 = 0.8998 | 51.8525 kg/m3
274.99 K, 8019.2 kPa, x2 = 0.8 | 74.4425 kg/m3
274.99 K, 10017 kPa, x2 = 0.8 | 95.4954 kg/m3
274.99 K, 11989 kPa, x2 = 0.8 | 116.514 kg/m3 and 116.518 kg/m3
274.99 K, 14080 kPa, x2 = 0.8 | 138.416 kg/m3
274.99 K, 15091 kPa, x2 = 0.8998 | 145.151 kg/m3
274.99 K, 15497 kPa, x2 = 0.8 | 152.681 kg/m3
274.99 K, 16131 kPa, x2 = 0.8 | 158.862 kg/m3 and 158.861 kg/m3
274.99 K, 16805 kPa, x2 = 0.8998 | 161.533 kg/m3 and 161.536 kg/m3
274.99 K, 17724 kPa, x2 = 0.8998 | 169.816 kg/m3
274.99 K, 17726 kPa, x2 = 0.8998 | 169.823 kg/m3
275 K, 2005.1 kPa, x2 = 0.8998 | 15.7688 kg/m3
275 K, 4053.8 kPa, x2 = 0.8998 | 33.2951 kg/m3
275 K, 6055.4 kPa, x2 = 0.8998 | 51.8523 kg/m3
275 K, 8023.2 kPa, x2 = 0.8998 | 71.384 kg/m3
275 K, 10028 kPa, x2 = 0.8998 | 92.2879 kg/m3
275 K, 11444 kPa, x2 = 0.8998 | 107.355 kg/m3
275 K, 13322 kPa, x2 = 0.8998 | 127.156 kg/m3
299.91 K, 2564.5 kPa, x2 = 0.8 | 19.5987 kg/m3 and 19.5993 kg/m3
299.91 K, 4995 kPa, x2 = 0.8 | 39.306 kg/m3

Reference: the NIST ThermoML archive (doi:10.1016/j.jct.2005.10.004)
